Data set [1] has as its system Arabidopsis. Put plainly: High concentration (10 mM) apocarotenoid effects on plant growth. The note with it: for herbicidal effect when sprayed on plants / method of lethality (phenotype): 10 mM per FIG. 11. The class given is in vivo. The procedure: FIG. 10 illustrates the effect of high doses of β-cyclocitral and DHAD on root growth. A) The effect of adding small volumes of 10 mM apocarotenoids daily to either the shoots, root tip, or the middle of the root. B) A confocal image of a healthy root stained with propidium iodide, which marks dead cells. C) A root treated with 10 mM β-cyclocitral applied to the tip of the root.
FIG. 11 illustrates the effect of 10 mM apocarotenoids on plant development. A) The percent change in lateral root capacity, normalized to control plants. Abbreviations: dihydro-β-ionone (DHβI), dimethyl-β-cyclocitral (DMβC). β-cyclocitral (β-cyc), pseudoionone (PI), and dihydroactinidiolide (DHAD). B) Confocal image of a control root stained with propidium iodide. C) Image of a root treated with safranal. D) Images of leaves form a control plant. E) Images of leaves from a plant treated with pseudoionone.
At high concentrations (10 mM) of β-cyclocitral or DHAD, root length, shoot mass, and lateral root growth were inhibited. […] In one embodiment, safranal may be detrimental to Arabidopsis at concentrations as low as 500 μM.

Data set [2] deals with Arabidopsis thaliana. Put plainly: Lateral root capacity (emerged lateral roots after removal of the primary root apical meristem). The class given is in vivo. The note with it: for rescue of D15 inhibition of lateral root branching: D15-treated plants, apocarotenoid concentration varied for maximum rescue; for lateral root capacity / branching in combination with D15 (screen): 30 μM D15 plus apocarotenoid, normalized to D15 treatment.

In data set [3] the test system is lateral root primordia. In words: Lateral root primordia counts with WOX5 (stage 1) and EN7 (stage 3) markers, and primordia emergence. The class given is in vivo, Arabidopsis thaliana. The procedure: All seeds were in the Columbia-0 background. Seeds were sterilized with chlorine gas, incubated in 4° C. water for 2 days, and plated on 1% (wt/vol) Murashige and Skoog (1% MS) media with 1% agar. They were exposed to 100-130 μmol/(m^2s^1) illumination and grown vertically under long-day conditions at 22° C. Plants were analyzed at 7 days after stratification (das), unless noted otherwise. D15-treated media was made using D15 (N-(4-fluorobenzyl)-methoxycinnamic hydroxamic acid) synthesized by LeadGen Labs, LLC solubilized in DMSO. 100 mM D15 stock solution was diluted directly into 1% MS media for final concentrations ranging from 1 μM to 100 μM. For initial experiments testing the ability of apocarotenoids to rescue D15, plants were seeded on 1% MS media containing 30 μM D15 and 100 nM apocarotenoid (diluted from 1 mM stock solutions dissolved in DMSO). For subsequent experiments characterizing the effect of β-cyclocitral, plants were exposed to volatile analytical grade β-cyclocitral (≥97%, Sigma Aldrich) using 100×15 mm partitioned petri dishes. One side of the partition was filled with 25 μM β-cyclocitral diluted in 1% MS media. Seeds were plated on the other side of the partition, on 1% MS media. […] For norflurazone treatments, norflurazone (Chem Service) dissolved in DMSO was diluted to a final concentration of 500 nM norflurazone in 1% MS media. For all experiments, including those performed on tomatoes and rice, plants were never exposed to DMSO concentrations that exceeded 0.1%.
(§1) To measure lateral root capacity, the primary root apical meristem of each seedling was sterilely excised at 7 days. The plants were given 3 days to grow out lateral roots, and then each emerged lateral root was counted using a dissection microscope, as described previously (Van Norman et al., Proceedings of the National Academy of Sciences of the United States of America, 2014. 111(13): p. E1300-E1309). Luciferase activity was measured as previously described, using exposure times of 7 min (Moreno-Risueno, M. A., et al., Science, 2010. 329(5997): p. 1306-1311). WOX5^+ and EN7^+ primordia were counted using a stereo zoom microscope (Zeiss). Lateral and primary root lengths for Arabidopsis thaliana and tomato were measured using ImageJ (National Institutes of Health) software. 3D images of rice root architecture were captured using a 360° revolving platform and these images were analyzed using GiA Roots (www.giaroots.org), as described previously by Topp (2013). Primary root lengths were determined by dissecting the root and measuring the length with a ruler. Shoot mass was measured after removing the shoots and drying them for 10 days at 60° C.
First, the effect of D15 on lateral root branching was characterized and is shown FIG. 1. […] NCEDs are a sub-group of CCDs that cleave carotenoids at the 11, 12′ positions. […] By titrating D15 to its IC50 concentration (30 μM), the lateral root capacity was measured with enhanced sensitivity (FIGS. 1A-B). To determine how D15 inhibits lateral root branching, its effect on the lateral root clock, which establishes the sites of lateral root initiation, was examined. To test this, a synthetic promoter driving luciferase (pDR5:LUC) was utilized. In control roots, luminescence intensity oscillates every six hours (FIG. 1C). Only the root cells that experience the peak oscillation intensity become competent to form lateral root pre-branch sites. […] To further characterize the effect of D15 on lateral root initiation, its effect on two stages of primordia development was determined, as marked by WOX5 (pWOX5:GFP) and EN7 (pEN7:GAL4; UAS:H2A-GFP). These lines allow visualization of the QC at stage 1 of primordia development and the endodermis at stage 3 of development, respectively. […] This further supports the lateral root clock evidence that D15 inhibits the initiation of lateral root primordia.

The test system of data set [4] is Heinz tomatoes. In words: Tomato primary and lateral root growth. The class given is in vivo. The method, then: as §1, with “Heinz tomatoes were used for all tomato experiments. Seeds were sterilized using 40% liquid bleach for 30 min, then plated on 1% MS media in 120×120×17 mm square petri dishes. Seeds were kept in the dark at room temperature for 3 days, and then exposed to 100-130 μmol/(m^2s^1) illumination and grown vertically under long-day conditions at 22° C. For treating tomatoes, β-cyclocitral, norflurazone, and D15 were added directly to the media, at the concentrations described in the figures. Norflurazone was diluted to a final concentration of 1 μM in media. Tomato phenotypes were analyzed at 6 das. To measure” for “To measure”, “111(13): p. […]-[…]). Luciferase activity” for “111(13): p. E1300-E1309). Luciferase activity”

Data set [5] deals with lateral root clock. Put plainly: Lateral root clock luminescence (pDR5:LUC) and pre-branch sites. The class given is in vivo, Arabidopsis thaliana. The method, then: as §1
First, the effect of D15 on lateral root branching was characterized and is shown FIG. 1. […] By titrating D15 to its IC50 concentration (30 μM), the lateral root capacity was measured with enhanced sensitivity (FIGS. 1A-B). […]

In data set [6] the test system is LeCCD1. The note with it: in vitro; cited from earlier work.
[7] abbreviates: IC50 concentration of D15 (30 μM).

“Also recorded” adds a separate entry of the source.

Turning to `CC1=C(C=O)C(C)CCC1` (stereo not drawn), the “herbicidal effect when sprayed on plants” value in data set [1] is recorded as “herbicidal effects”. Also, the “rescue of D15 inhibition of lateral root branching” value in data set [2] was “did not have the capacity to rescue”.
For the molecule `CC1=CC(=O)CC(C)(C)[C@@]1(O)/C=C/C(C)=C\C(=O)O` [ABA, abscisic acid, reference compound], in data set [2], the “lateral root capacity / branching in combination with D15 (screen)” value (“lateral root capacity / branching” for short) is “further decreased”.
Regarding `CC1(C)CCC[C@@]2(C)OC(=O)C=C12` [DHAD, dihydroactinidiolide], in data set [1] (10 mM), the lateral root growth entry is recorded as “inhibited”, the root length result was “inhibited” and the shoot mass entry is “inhibited”. In data set [2], the “lateral root capacity / branching” value is listed as “increase lateral root branching” and the “rescue of D15 inhibition of lateral root branching” value was “only partially rescue”.
With `CC1=C[C@H](O/C=C2/C(=O)O[C@@H]3c4ccccc4C[C@H]23)OC1=O` [GR24, reference compound], the “lateral root capacity / branching” value in data set [2] is recorded as “further decreased”.
As for `CNc1cnn(-c2cccc(C(F)(F)F)c2)c(=O)c1Cl` [norflurazone, 4-chloro-5-(methylamino)-2-(α,α,α-trifluoro-m-tolyl)-3(2H)-pyridazinone], the “effect on lateral root development (primordia initiation, maintenance, development, emergence)” value in data set [3] (500 nM norflurazone in media) is “blocks normal lateral root development; also recorded: blocked primordia initiation as well as maintenance, post-initiation development, and emergence”. For the same molecule, the “primary and lateral root growth” value in data set [4] (tomato, 1 μM norflurazone in media) was “decreased”.
For the molecule `CC(=O)/C=C/C=C(\C)CCC=C(C)C` [pseudoionone], in data set [1], the “herbicidal effect when sprayed on plants” value is recorded as “herbicidal effects” and the “method of lethality (phenotype)” value was “caused plants to become chlorotic”.
In the case of `CC1=C(C=O)C(C)(C)CC=C1` [safranal], in data set [1], the “herbicidal effect when sprayed on plants” value is listed as “herbicidal effects” and the “method of lethality (phenotype)” value is “changed root cell morphology”.
Take `CC(=O)/C=C/C1=C(C)CCCC1(C)C` [β-ionone]: the “rescue of D15 inhibition of lateral root branching” value in data set [2] was “did not have the capacity to rescue”.
As for “N-(4-fluorobenzyl)-methoxycinnamic hydroxamic acid [D15]”, the “peak oscillation intensity of pDR5:LUC luminescence vs control roots” value in data set [5] (D15-treated roots (100 μM per FIG. 1)) is “significantly lower”. In data set [5] (D15-treated roots, p=0.009), the “number of pre-branch sites” value is “significantly decreased”. In data set [2] (100 μM D15), the “lateral root capacity, maximum effect” value is “completely inhibited”. The IC50 in data set [2] (D15 in 1% MS media, read-out: IC50 concentration for lateral root capacity) is 30 µM. For the same molecule, in data set [6], the “enzyme preference, LeCCD1 compared to LeNCED1” value is recorded as “preferentially targets LeCCD1”. In data set [3] (setting [7]), the “decrease in number of stage 1 (WOX5) lateral root primordia” value is on record as “approximately 50%” and the “decrease in number of stage 3 (EN7) lateral root primordia” value is reported as “approximately 50%”. In addition, the “emergence of lateral root primordia compared to control roots” value in data set [3] (in vivo) is “did not inhibit”. The lateral root length entry in data set [4] (Heinz tomatoes, D15 treatment) is given as “does not decrease”. Further, the primary root length result in data set [4] (tomato, D15 treatment) is given as “decreased”. Further, the lateral root branching entry in data set [4] (tomato, p=0.99) is “did not have a negative effect”.

The values above are taken from patent publication US20190289849A1, “Novel Plant Growth Regulators and Methods of Using Same” (Duke University, priority 2016, published 2019).
